From patent EP3959993B1, “METHOD FOR SOLVENT FREE PRODUCTION OF AROMA CONCENTRATES” (Symrise AG, priority 2020, dated 2022) come the findings set out here.

A short description of data set [1]: Influence of the amount of NaCl on the distribution between oil phase and water phase (Example 5). The data set is classed as physicochemical.
The nature of data set [2]: Second oil phase obtained by adding NaCl to the water phase (Example 4). Type of data set: physicochemical. The note with it: after separating oil phases I and II. As to the method:
Cross linked polystyrene was used as adsorbent material. The volume flux for loading the adsorbent was 300 ml/min.
The adsorbent was heated to 150 °C, the temperature of the applied water steam was 160 °C.
The water steam flux was 10 g/min and was applied for 100 min.
The oil and water phases were separated.
A second oil phase was separated and was collected.

`CC(=O)OCC(C)C` [2-methylpropyl acetate]: the “Distribution in [%] between oil phase and water phase after condensation: Oil phase” value was 69.3% in data set [1] (NaCl 0%); 92.1% in data set [1] (NaCl 27.8 %); 96.2% in data set [1] (NaCl 41.67%); 97.5% in data set [1] (NaCl 55.56 %); 98.6% in data set [1] (NaCl 69.44 %); 99% in data set [1] (NaCl 83.33 %). Moreover, the “Distribution in [%] between oil phase and water phase after condensation: Water phase” value in data set [1] (NaCl 0%) came to 30.7%; in data set [1] (NaCl 27.8 %), 7.9%; in data set [1] (NaCl 41.67%), 3.8%; in data set [1] (NaCl 55.56 %), 2.5%; in data set [1] (NaCl 69.44 %), 1.4%; in data set [1] (NaCl 83.33 %), 1%. Besides, the “Loss in the water phase” value in data set [2] is 1,0%.
Consider `CC(C)CCO` [3-methyl butanol], for which the “Distribution in [%] between oil phase and water phase after condensation: Oil phase” value in data set [1] (NaCl 0%) is reported as 28.4%; in data set [1] (NaCl 27.8 %) it was 39%; in data set [1] (NaCl 41.67%) it was 63.1%; in data set [1] (NaCl 55.56 %), 69.7%; in data set [1] (NaCl 69.44 %), 68.9%; in data set [1] (NaCl 83.33 %), 82.1%. Moreover, the “Distribution in [%] between oil phase and water phase after condensation: Water phase” value turned out to be 71.6% in data set [1] (NaCl 0%); 61% in data set [1] (NaCl 27.8 %); 36.9% in data set [1] (NaCl 41.67%); 30.3% in data set [1] (NaCl 55.56 %); 31.1% in data set [1] (NaCl 69.44 %); 17.9% in data set [1] (NaCl 83.33 %). The “Loss in the water phase” value in data set [2] is 17,9%.
Consider `CCCCCCOC(C)=O` [hexyl acetate], for which the “Distribution in [%] between oil phase and water phase after condensation: Oil phase” value worked out at 93.4% in data set [1] (NaCl 0%); 99.4% in data set [1] (NaCl 27.8 %); 100% in data set [1] (NaCl 41.67%); 100% in data set [1] (NaCl 55.56 %); 100% in data set [1] (NaCl 69.44 %); 100% in data set [1] (NaCl 83.33 %). The “Distribution in [%] between oil phase and water phase after condensation: Water phase” value came to 6.6% in data set [1] (NaCl 0%); 0.6% in data set [1] (NaCl 27.8 %); 0% in data set [1] (NaCl 41.67%); 0% in data set [1] (NaCl 55.56 %); 0% in data set [1] (NaCl 69.44 %); 0% in data set [1] (NaCl 83.33 %). For the same compound, the “Loss in the water phase” value in data set [2] is listed as 0,0%.
Regarding `CCC(C)CO` (stereo not shown) [2-methyl butanol], the “Distribution in [%] between oil phase and water phase after condensation: Oil phase” value stood at 30.8% in data set [1] (NaCl 0%); 69% in data set [1] (NaCl 27.8 %); 64.4% in data set [1] (NaCl 41.67%); 70.6% in data set [1] (NaCl 55.56 %); 82.5% in data set [1] (NaCl 69.44 %); 82.7% in data set [1] (NaCl 83.33 %). For the same compound, the “Distribution in [%] between oil phase and water phase after condensation: Water phase” value in data set [1] (NaCl 0%) is reported as 69.2%; in data set [1] (NaCl 27.8 %) it was 31%; in data set [1] (NaCl 41.67%), 35.6%; in data set [1] (NaCl 55.56 %) it was 29.4%; in data set [1] (NaCl 69.44 %), 17.5%; in data set [1] (NaCl 83.33 %), 17.3%. Besides, in data set [2], the “Loss in the water phase” value is listed as 17,3%.
Consider `CCCCOC(C)=O` [butyl acetate], for which the “Distribution in [%] between oil phase and water phase after condensation: Oil phase” value in data set [1] (NaCl 0%) is 53.5%; in data set [1] (NaCl 27.8 %), 85.6%; in data set [1] (NaCl 41.67%), 92.5%; in data set [1] (NaCl 55.56 %), 95%; in data set [1] (NaCl 69.44 %) it was 97.5%; in data set [1] (NaCl 83.33 %), 98.6%. The “Distribution in [%] between oil phase and water phase after condensation: Water phase” value is 46.5% in data set [1] (NaCl 0%); 14.4% in data set [1] (NaCl 27.8 %); 7.5% in data set [1] (NaCl 41.67%); 5% in data set [1] (NaCl 55.56 %); 2.5% in data set [1] (NaCl 69.44 %); 1.4% in data set [1] (NaCl 83.33 %). For the same compound, the “Loss in the water phase” value in data set [2] is listed as 1,4%.
As to `CCOC(C)=O` [ethyl acetate], the “Distribution in [%] between oil phase and water phase after condensation: Oil phase” value is 10.4% in data set [1] (NaCl 0%); 20.8% in data set [1] (NaCl 27.8 %); 30.3% in data set [1] (NaCl 41.67%); 33.2% in data set [1] (NaCl 55.56 %); 38.9% in data set [1] (NaCl 69.44 %); 45.2% in data set [1] (NaCl 83.33 %). Moreover, the “Distribution in [%] between oil phase and water phase after condensation: Water phase” value amounted to 89.6% in data set [1] (NaCl 0%); 79.2% in data set [1] (NaCl 27.8 %); 69.7% in data set [1] (NaCl 41.67%); 66.8% in data set [1] (NaCl 55.56 %); 61.1% in data set [1] (NaCl 69.44 %); 54.8% in data set [1] (NaCl 83.33 %). The “Loss in the water phase” value in data set [2] is on record as 54,8%.
As to 2-methyl propanol, the “Distribution in [%] between oil phase and water phase after condensation: Oil phase” value in data set [1] (NaCl 0%) worked out at 17.1%; in data set [1] (NaCl 27.8 %), 29.7%; in data set [1] (NaCl 41.67%) it was 41%; in data set [1] (NaCl 55.56 %), 42.8%; in data set [1] (NaCl 69.44 %), 45.9%; in data set [1] (NaCl 83.33 %) it was 50.2%. In addition, the “Distribution in [%] between oil phase and water phase after condensation: Water phase” value in data set [1] (NaCl 0%) came out at 82.9%; in data set [1] (NaCl 27.8 %), 70.3%; in data set [1] (NaCl 41.67%) it was 59%; in data set [1] (NaCl 55.56 %) it was 57.2%; in data set [1] (NaCl 69.44 %), 54.1%; in data set [1] (NaCl 83.33 %), 49.8%. The “Loss in the water phase” value in data set [2] is on record as 49,8%.
